Test results from patent US20240376097A1, “BCL-2 Inhibitor” (BeiGene Ltd., priority 2020, published 2024).

Tests used:
[1] = target: recombinant human Bcl-2-G101V protein (Homo sapiens (Human), UniProt P10415, G101V); assay: Bcl-2-G101V TR-FRET Assay; assay type: binding; conditions: Bcl-2 G101V mutant, TR-FRET; read-out: Biochemical assay (IC50, nM) Bcl-2 G101V
Outline: (§1)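 Compounds were titrated at increasing concentrations against the Bcl-2-G101V–ligand interaction. TR-FRET signals were then read (ex 337 nm; em 490/520 nm). Percent inhibition was derived from the 490-to-520 nm ratio, and IC50 from a four-parameter logistic equation.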

[2] = tested on: recombinant human Bcl-2-G101V protein; assay: Bcl-2-G101V TR-FRET Assay; assay type: binding; conditions: ratio of biochemical IC50 Bcl-2 G101V / Bcl-2 WT
Outline: as §1

[3] = tested on: RS4;11 (BCL-2 dependent acute lymphoblastic leukemia cell line); assay: RS4;11 Cell Proliferation Assay; assay type: cell-based; conditions: Homo sapiens, RS4-11, RS4;11 cells, read-out: Cellular proliferation assay (IC50, nM) RS4
Outline: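 Viability measured via CellTiter-Glo luminescence after a 48 h, 37 °C exposure to compounds (10 points, highest 1 μM). Seeding was 50,000 RS4;11 cells per well in 10% FBS RPMI-1640; IC50 given as mean.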

[4] = target: Recombinant human Bcl-2 protein (Homo sapiens (Human), UniProt P10415); assay: Bcl-2 TR-FRET Assay; assay type: binding; conditions: Bcl-2 wild type, TR-FRET; read-out: Biochemical assay (IC50, nM) Bcl-2 WT
Outline: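 In pH 7.5 phosphate buffer containing NaCl, EDTA, Tween-20 and BSA, 0.05 nM Bcl-2 saw serially diluted compound for 0.5 h before 0.5 nM FITC-Bak peptide was added. Signal ratio at 520/490 nm after 1 h yielded IC50.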

[5] = tested on: BCL-2 G101V knock-in cell line H96 (derive from RS4;11); assay: Bcl 2-G101V Knock-In RS4;11 Cell Proliferation Assay; assay type: cell-based; conditions: Homo sapiens, RS4;11 Bcl-2 G101V knock-in clone H96, 48 hrs, CellTiter-GLO, read-out: Cellular proliferation assay (IC50, nM) RS4
Outline: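 CellTiter-Glo luminescence after 48 h, 37 °C compound treatment (10 concentrations, maximum 1 μM or 10 μM) gave mean IC50 values. Cells were 50,000 per well of H96, a BCL2-G101V knock-in single clone derived from RS4;11 by Cas9 editing.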

Compound | IC50 [1] | Ratio of Bcl-2 G101V/WT [2] | IC50 [3] | IC50 [4] | IC50 [5]
COc1ccc(CN2CCN(C3CC4(C3)CN(c3ccc(C(=O)NS(=O)(=O)c5ccc(NC[C@H]6CC[C@](C)(O)CC6)c([N+](=O)[O-])c5)c(Oc5cnc6[nH]ccc6c5)c3)C4)[C@H](c3ccccc3C(C)C)C2)cn1 [Example 254, 2-((1H-pyrrolo[2,3-b]pyridin-5-yl)oxy)-N-((4-((((1r,4r)-4-hydroxy-4-methylcyclohexyl)methyl)amino)-3-nitrophenyl)sulfonyl)-4-(6-((R)-2-(2-isopropylphenyl)-4-((6-methoxypyridin-3-yl)methyl)piperazin-1-yl)-2-azaspiro[3.3]heptan-2-yl)benzamide] | 0.067 nM | 3.9 | 0.09 nM | 0.017 nM | 0.25 nM
[2H]C([2H])([2H])Oc1ccc(CN2CCN(C3CC4(CCN(c5ccc(C(=O)NS(=O)(=O)c6ccc(NC[C@H]7CC[C@](C)(O)CC7)c([N+](=O)[O-])c6)c(Oc6cnc7[nH]ccc7c6)c5)CC4)C3)[C@H](c3ccccc3C(C)C)C2)cc1OC([2H])([2H])[2H] [Example 253, 2-((1H-pyrrolo[2,3-b]pyridin-5-yl)oxy)-4-(2-((R)-4-(3,4-bis(methoxy-d3)benzyl)-2-(2-isopropylphenyl)piperazin-1-yl)-7-azaspiro[3.5]nonan-7-yl)-N-((4-((((1r,4r)-4-hydroxy-4-methylcyclohexyl)methyl)amino)-3-nitrophenyl)sulfonyl)benzamide] | 0.089 nM | 3.3 | 0.11 nM | 0.027 nM | 0.29 nM
CC(C)c1ccccc1[C@@H]1CN(Cc2ccnc3c2OC(C)(C)CO3)CCN1C1CC2(C1)CN(c1ccc(C(=O)NS(=O)(=O)c3ccc(NC[C@H]4CC[C@](C)(O)CC4)c([N+](=O)[O-])c3)c(Oc3cnc4[nH]cc(F)c4c3)c1)C2 [Example 313, 4-(6-((R)-4-((2,2-dimethyl-2,3-dihydro-[1,4]dioxino[2,3-b]pyridin-8-yl)methyl)-2-(2-isopropylphenyl)piperazin-1-yl)-2-azaspiro[3.3]heptan-2-yl)-2-((3-fluoro-1H-pyrrolo[2,3-b]pyridin-5-yl)oxy)-N-((4-((((1r,4r)-4-hydroxy-4-methylcyclohexyl)methyl)amino)-3-nitrophenyl)sulfonyl)benzamide] | 0.19 nM | 3.9 | 0.18 nM | 0.048 nM | 0.4 nM
COc1ccc(CN2CCN(C3CC4(C3)CN(c3ccc(C(=O)NS(=O)(=O)c5ccc(NCC6CCOCC6)c([N+](=O)[O-])c5)c(Oc5cnc6[nH]ccc6c5)c3)C4)[C@H](c3ccccc3C(C)C)C2)cc1OC [Example 173, (R)-2-((1H-pyrrolo[2,3-b]pyridin-5-yl)oxy)-4-(6-(4-(3,4-dimethoxybenzyl)-2-(2-isopropylphenyl)piperazin-1-yl)-2-azaspiro[3.3]heptan-2-yl)-N-((3-nitro-4-(((tetrahydro-2H-pyran-4-yl)methyl)amino)phenyl)sulfonyl) benzamide] | 0.11 nM | 6.5 | 0.18 nM | 0.017 nM | 0.6 nM
CC(C)c1ccccc1[C@@H]1CN(Cc2ccc3c(c2)OCC3)CCN1C1CC2(C1)CN(c1ccc(C(=O)NS(=O)(=O)c3ccc(NC[C@H]4CC[C@](C)(O)CC4)c([N+](=O)[O-])c3)c(Oc3cnc4[nH]ccc4c3)c1)C2 [Example 298, 2-((1H-pyrrolo[2,3-b]pyridin-5-yl)oxy)-4-(6-((R)-4-((2,3-dihydrobenzofuran-6-yl)methyl)-2-(2-isopropylphenyl)piperazin-1-yl)-2-azaspiro[3.3]heptan-2-yl)-N-((4-((((1r,4r)-4-hydroxy-4-methylcyclohexyl)methyl)amino)-3-nitrophenyl)sulfonyl)benzamide] | 0.45 nM | 4.6 | 0.24 nM | 0.099 nM | 1.82 nM
CC(C)c1ccccc1[C@H]1CN(C(C)C)CCN1C1CC2(CCN(c3ccc(C(=O)NS(=O)(=O)c4ccc(NC[C@H]5CC[C@](C)(O)CC5)c([N+](=O)[O-])c4)c(Oc4cnc5[nH]ccc5c4)c3)CC2)C1 (single isomer, unassigned) [Example 3a, 2-((1H-pyrrolo[2,3-b]pyridin-5-yl)oxy)-N-((4-((((1r,4r)-4-hydroxy-4-methylcyclohexyl)methyl)amino)-3-nitrophenyl)sulfonyl)-4-(2-((S or R)-4-isopropyl-2-(2-isopropylphenyl)piperazin-1-yl)-7-azaspiro[3.5]nonan-7-yl)benzamide] | 2.2 nM | 64.7 | 3.67 nM | 0.034 nM | 35.1 nM
COc1cc(CN2CCN(C3CC4(CCN(c5ccc(C(=O)NS(=O)(=O)c6ccc(NC[C@H]7CC[C@](C)(O)CC7)c([N+](=O)[O-])c6)c(Oc6cnc7[nH]ccc7c6)c5)CC4)C3)C(c3ccccc3C(C)C)C2)ccc1C1CC1 (some centres unmarked) [Example 156, 2-((1H-pyrrolo[2,3-b]pyridin-5-yl)oxy)-4-(2-(4-(4-cyclopropyl-3-methoxybenzyl)-2-(2-isopropylphenyl)piperazin-1-yl)-7-azaspiro[3.5]nonan-7-yl)-N-((4-((((1r,4r)-4-hydroxy-4-methylcyclohexyl)methyl)amino)-3-nitrophenyl)sulfonyl)benzamide] | 3.6 nM | 4.9 | 0.375 nM | 0.73 nM | 1.42 nM
COc1ccc(CN2CCN(C3CC4(CCN(c5ccc(C(=O)NS(=O)(=O)c6cc7c(c([N+](=O)[O-])c6)N[C@H](C[C@H]6CC[C@H](O)CC6)CO7)c(Oc6cnc7[nH]ccc7c6)c5)CC4)C3)[C@H](c3ccccc3C(C)C)C2)cc1 [Example 221] | 0.27 nM | 3.4 | 0.16 nM | 0.08 nM | 0.92 nM
CC(C)c1ccccc1C1CN(Cc2cccc3c2OC(C)(C)O3)CCN1C1CC2(CCN(c3ccc(C(=O)NS(=O)(=O)c4ccc(NC[C@H]5CC[C@](C)(O)CC5)c([N+](=O)[O-])c4)c(Oc4cnc5[nH]ccc5c4)c3)CC2)C1 (some centres unmarked) [Example 201, 2-((1H-pyrrolo[2,3-b]pyridin-5-yl)oxy)-4-(2-(4-((2,2-dimethylbenzo [d][1,3]dioxol-4-yl)methyl)-2-(2-isopropylphenyl)piperazin-1-yl)-7-azaspiro[3.5]nonan-7-yl)-N-((4-((((1r,4r)-4-hydroxy-4-methylcyclohexyl)methyl)amino)-3-nitrophenyl)sulfonyl)benzamide] | 1.1 nM | 3.9 | 0.74 nM | 0.28 nM | 6.2 nM
COCCN1CCN(C2CC3(CCN(c4ccc(C(=O)NS(=O)(=O)c5ccc(NC[C@H]6CC[C@](C)(O)CC6)c([N+](=O)[O-])c5)c(Oc5cnc6[nH]ccc6c5)c4)CC3)C2)[C@@H](c2ccccc2C(C)C)C1 (single isomer, unassigned) [Example 13a, 2-((1H-pyrrolo[2,3-b]pyridin-5-yl)oxy)-N-((4-((((1r,4r)-4-hydroxy-4-methylcyclohexyl)methyl)amino)-3-nitrophenyl)sulfonyl)-4-(2-((S or R)-2-(2-isopropylphenyl)-4-(2-methoxyethyl)piperazin-1-yl)-7-azaspiro[3.5]nonan-7-yl)benzamide] | 3.6 nM | 94.7 | 10.5 nM | 0.038 nM | 87.4 nM
